Our source for the IC90 and MIC values is publication PMC11811690 (Angewandte Chemie (International Ed. in English), 2024).

Values after ≈ are worked out from the molar mass of the structure shown. Read-outs that look alike come from different tables or passages of the source.

The test system of assay [1] is M. tuberculosis H37Rv poly-g-GFP. As to the kind of experiment: microbe, parasite or virus in culture. The format is cell-based. The following applies: Mycobacterium tuberculosis, H37RV, 240 h, read-out: IC90 Mtb H37Rv-poly-g-GFP, fluorescence read-out.
The subject of another assay is C. difficile 630. As to the kind of experiment: microbe, parasite or virus in culture. The format is cell-based, Clostridioides difficile.
[2] abbreviates: Clostridioides difficile, C. difficile 630, anaerobic, overnight, growth suppressed to OD600 < 0.15, read-out: MIC C. difficile.
[3] abbreviates: concentration for 90 % inhibition of fluorescence as proxy for growth inhibition, 10 days, 37 °C.

As for `CC[C@H]1/C=C(\C)[C@@H](O)C/C=C/C=C(\CN2CCN(c3ccccc3)CC2)C(=O)O[C@H]([C@@H](C)O)C/C=C(C)/C=C(\C)[C@@H]1O[C@@H]1OC(C)(C)[C@@H](OC(=O)C(C)C)[C@H](O)[C@@H]1O` [compound 2], in assay [1], the IC90 came out at 16 µg/mL (≈ 19.8 µM). The MIC with C. difficile 630 (setting [2]) was over 32 µg/mL.

With `CC[C@H]1/C=C(\C)[C@@H](O)C/C=C/C=C(\CN2CCN(c3ccncc3)CC2)C(=O)O[C@H]([C@@H](C)O)C/C=C(C)/C=C(\C)[C@@H]1O[C@@H]1OC(C)(C)[C@@H](OC(=O)C(C)C)[C@H](O)[C@@H]1O` [compound 3], the IC90 in assay [1] came to 16 µg/mL (≈ 19.8 µM).

As to `CC[C@H]1/C=C(\C)[C@@H](O)C/C=C/C=C(\CN2CCN(CCOc3ncccn3)CC2)C(=O)O[C@H]([C@@H](C)O)C/C=C(C)/C=C(\C)[C@@H]1O[C@@H]1OC(C)(C)[C@@H](OC(=O)C(C)C)[C@H](O)[C@@H]1O` [compound 4], the IC90 in assay [1] is over 64 µg/mL.

For the compound `CC[C@H]1/C=C(\C)[C@@H](O)C/C=C/C=C(\CN2CCN(Cc3ccc(F)cc3)CC2)C(=O)O[C@H]([C@@H](C)O)C/C=C(C)/C=C(\C)[C@@H]1O[C@@H]1OC(C)(C)[C@@H](OC(=O)C(C)C)[C@H](O)[C@@H]1O` [compound 6], the IC90 in assay [1] was 16 µg/mL (≈ 19 µM). The MIC with C. difficile 630 (setting [2]) stood at 16 µg/mL (≈ 19 µM).

For `CC[C@H]1/C=C(\C)[C@@H](O)C/C=C/C=C(\CNc2nc3c(s2)CCCC3)C(=O)O[C@H]([C@@H](C)O)C/C=C(C)/C=C(\C)[C@@H]1O[C@@H]1OC(C)(C)[C@@H](OC(=O)C(C)C)[C@H](O)[C@@H]1O` [compound 11], the IC90 in assay [1] is 16 µg/mL (≈ 20 µM). For the same compound, the MIC in the assay on C. difficile 630 (setting [2]) fell in the range of 8 to 16 µg/mL (≈ 9.99 to 20 µM).

With `CC[C@H]1/C=C(\C)[C@@H](O)C/C=C/C=C(\CNc2nc3c(s2)CN(C)CC3)C(=O)O[C@H]([C@@H](C)O)C/C=C(C)/C=C(\C)[C@@H]1O[C@@H]1OC(C)(C)[C@@H](OC(=O)C(C)C)[C@H](O)[C@@H]1O` [compound 12], the IC90 in assay [1] was 32 µg/mL (≈ 39.2 µM).

On to `CC[C@H]1/C=C(\C)[C@@H](O)C/C=C/C=C(\CNCc2nc3ccccc3s2)C(=O)O[C@H]([C@@H](C)O)C/C=C(C)/C=C(\C)[C@@H]1O[C@@H]1OC(C)(C)[C@@H](OC(=O)C(C)C)[C@H](O)[C@@H]1O` [compound 14], for which the IC90 in assay [1] amounted to 16 µg/mL (≈ 19.7 µM). Further, the MIC with C. difficile 630 (setting [2]) was over 32 µg/mL.

For `CC[C@H]1/C=C(\C)[C@@H](O)C/C=C/C=C(\CNCc2cc(-c3ccccc3)no2)C(=O)O[C@H]([C@@H](C)O)C/C=C(C)/C=C(\C)[C@@H]1O[C@@H]1OC(C)(C)[C@@H](OC(=O)C(C)C)[C@H](O)[C@@H]1O` [compound 15], the IC90 in assay [1] stood at 16 µg/mL (≈ 19.5 µM).

As for `CC[C@H]1/C=C(\C)[C@@H](O)C/C=C/C=C(\CNCc2nnc(-c3cc(Cl)cc(Cl)c3O)o2)C(=O)O[C@H]([C@@H](C)O)C/C=C(C)/C=C(\C)[C@@H]1O[C@@H]1OC(C)(C)[C@@H](OC(=O)C(C)C)[C@H](O)[C@@H]1O` [compound 17], the IC90 in assay [1] worked out at 32 µg/mL (≈ 35.3 µM). In the assay on C. difficile 630 (setting [2]), the MIC came out at 2 µg/mL (≈ 2.21 µM).

Consider `CC[C@H]1/C=C(\C)[C@@H](O)C/C=C/C=C(\CNCc2nnc(C)o2)C(=O)O[C@H]([C@@H](C)O)C/C=C(C)/C=C(\C)[C@@H]1O[C@@H]1OC(C)(C)[C@@H](OC(=O)C(C)C)[C@H](O)[C@@H]1O` [compound 19], for which, in assay [1], the IC90 is 16 µg/mL (≈ 21.1 µM). For the same compound, the MIC in the assay on C. difficile 630 (setting [2]) stood at 32 µg/mL (≈ 42.1 µM).

`CC[C@H]1/C=C(\C)[C@@H](O)C/C=C/C=C(\CNc2cccc(CNC(=O)CCC(=O)O)c2)C(=O)O[C@H]([C@@H](C)O)C/C=C(C)/C=C(\C)[C@@H]1O[C@@H]1OC(C)(C)[C@@H](OC(=O)C(C)C)[C@H](O)[C@@H]1O` [compound 28]: the IC90 in assay [1] (setting [3]) is over 64 µg/mL. In addition, the MIC with C. difficile 630 (setting [2]) stood at 32 µg/mL (≈ 36.8 µM).

As to `CC[C@H]1/C=C(\C)[C@@H](O)C/C=C/C=C(\CNc2cccc(CNC(=O)Cc3nnn[nH]3)c2)C(=O)O[C@H]([C@@H](C)O)C/C=C(C)/C=C(\C)[C@@H]1O[C@@H]1OC(C)(C)[C@@H](OC(=O)C(C)C)[C@H](O)[C@@H]1O` [compound 29], in assay [1] (setting [3]), the IC90 worked out at 64 µg/mL (≈ 72.8 µM). In addition, in the assay with C. difficile 630 (setting [2]), the MIC is over 32 µg/mL.

As to `CC[C@H]1/C=C(\C)[C@@H](O)C/C=C/C=C(\CNc2cccc(CNC(=O)c3ccc(O)c(O)c3Cl)c2)C(=O)O[C@H]([C@@H](C)O)C/C=C(C)/C=C(\C)[C@@H]1O[C@@H]1OC(C)(C)[C@@H](OC(=O)C(C)C)[C@H](O)[C@@H]1O` [compound 31], the IC90 in assay [1] (setting [3]) is over 64 µg/mL. In addition, in the assay with C. difficile 630 (setting [2]), the MIC turned out to be 32 µg/mL (≈ 34.1 µM).

In the case of `CC[C@H]1/C=C(\C)[C@@H](O)C/C=C/C=C(\CNc2nc(-c3cccc(O)c3)cs2)C(=O)O[C@H]([C@@H](C)O)C/C=C(C)/C=C(\C)[C@@H]1O[C@@H]1OC(C)(C)[C@@H](OC(=O)C(C)C)[C@H](O)[C@@H]1O` [compound 32], the IC90 in assay [1] (setting [3]) was in the range of 4 to 8 µg/mL (≈ 4.77 to 9.53 µM). The MIC in the assay on C. difficile 630 (setting [2]) amounted to 8 µg/mL (≈ 9.53 µM).

For the compound `CC[C@H]1/C=C(\C)[C@@H](O)C/C=C/C=C(\CNc2nc(-c3cccc(OS(=O)(=O)F)c3)cs2)C(=O)O[C@H]([C@@H](C)O)C/C=C(C)/C=C(\C)[C@@H]1O[C@@H]1OC(C)(C)[C@@H](OC(=O)C(C)C)[C@H](O)[C@@H]1O` [compound 33], in assay [1] (setting [3]), the IC90 was 8 to 16 µg/mL (≈ 8.69 to 17.4 µM). Besides, in the assay on C. difficile 630 (Clostridioides difficile, 630, read-out: MIC C. difficile), the MIC was over 32 µg/mL.

With `CC[C@H]1/C=C(\C)[C@@H](O)C/C=C/C=C(\CNc2nc(-c3cccc(OS(=O)(=O)NC)c3)cs2)C(=O)O[C@H]([C@@H](C)O)C/C=C(C)/C=C(\C)[C@@H]1O[C@@H]1OC(C)(C)[C@@H](OC(=O)C(C)C)[C@H](O)[C@@H]1O` [compound 34], the IC90 in assay [1] (setting [3]) was 8 µg/mL (≈ 8.58 µM). For the same compound, the MIC in the assay with C. difficile 630 (setting [2]) stood at 1 µg/mL (≈ 1.07 µM).

On to `CC[C@H]1/C=C(\C)[C@@H](O)C/C=C/C=C(\CNc2nc(-c3cccc(OS(=O)(=O)N(C)C)c3)cs2)C(=O)O[C@H]([C@@H](C)O)C/C=C(C)/C=C(\C)[C@@H]1O[C@@H]1OC(C)(C)[C@@H](OC(=O)C(C)C)[C@H](O)[C@@H]1O` [compound 35], for which the IC90 in assay [1] (setting [3]) is 8 µg/mL (≈ 8.45 µM). Moreover, the MIC with C. difficile 630 (setting [2]) was over 32 µg/mL.

As to `CC[C@H]1/C=C(\C)[C@@H](O)C/C=C/C=C(\CN2CCN(C)CC2)C(=O)O[C@H]([C@@H](C)O)C/C=C(C)/C=C(\C)[C@@H]1O[C@@H]1OC(C)(C)[C@@H](O)[C@H](OC(=O)c2ccoc2)[C@@H]1O` [compound 41], the IC90 in assay [1] (setting [3]) was over 64 µg/mL.

`CC[C@H]1/C=C(\C)[C@@H](O)C/C=C/C=C(\CN2CCCCC2)C(=O)O[C@H]([C@@H](C)O)C/C=C(C)/C=C(\C)[C@@H]1O[C@@H]1OC(C)(C)[C@@H](O)[C@H](OC(=O)c2ccoc2)[C@@H]1O` [compound 42]: the IC90 in assay [1] (setting [3]) is over 64 µg/mL.

`CC[C@H]1/C=C(\C)[C@@H](O)C/C=C/C=C(\CN2CCN(CCCN(C)C)CC2)C(=O)O[C@H]([C@@H](C)O)C/C=C(C)/C=C(\C)[C@@H]1O[C@@H]1OC(C)(C)[C@@H](O)[C@H](OC(=O)c2ccoc2)[C@@H]1O` [compound 43]: the IC90 in assay [1] (setting [3]) lay within 32 to 64 µg/mL (≈ 38 to 76 µM).

In the case of `CC[C@H]1/C=C(\C)[C@@H](O)C/C=C/C=C(\CN2CCN(C)CC2)C(=O)O[C@H]([C@@H](C)O)C/C=C(C)/C=C(\C)[C@@H]1O[C@@H]1OC(C)(C)[C@@H](O)[C@H](OC(=O)c2ccn(C)n2)[C@@H]1O` [compound 44], in assay [1] (setting [3]), the IC90 was over 64 µg/mL.

Regarding `CC[C@H]1/C=C(\C)[C@@H](O)C/C=C/C=C(\CN2CCN(C)CC2)C(=O)O[C@H]([C@@H](C)O)C/C=C(C)/C=C(\C)[C@@H]1O[C@@H]1OC(C)(C)[C@@H](O)[C@H](OC(=O)c2ccnn2C)[C@@H]1O` [compound 45], the IC90 in assay [1] (setting [3]) was over 64 µg/mL.

For the compound `CC[C@H]1/C=C(\C)[C@@H](O)C/C=C/C=C(\CN2CCN(C)CC2)C(=O)O[C@H]([C@@H](C)O)C/C=C(C)/C=C(\C)[C@@H]1O[C@@H]1OC(C)(C)[C@@H](O)[C@H](OC(=O)c2cnn(C)c2)[C@@H]1O` [compound 46], in assay [1] (setting [3]), the IC90 is over 64 µg/mL.
